# Results published in ChEMBL document CHEMBL1201862, “PubChem BioAssay data set” (2004).
# The source made the active and inactive calls.
# How the values were obtained:
# [1] = target: Sphingosine 1-phosphate receptor 2 (Homo sapiens, UniProt O95136); assay: Dose Response Cell Based Assay for Antagonists of the S1P2 Receptor. [Related pubchem assays: 856, 736 ]; assay type: functional
# Cytochrome P450 3A4 = Cytochrome P450 3A4 (Homo sapiens, UniProt P08684);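 further: CYP3A4 tested as one member of a cytochrome P450 panel screen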
# Tumor necrosis factor [2] = target: T1, Tumor necrosis factor (Homo sapiens, UniProt P01375); assay: TNFa-triggered NF-kB activation inhibitors, SAR follow-up, cell-based, revised (AID 2337); assay type: functional
# T1 sequence (P01375 whole entry): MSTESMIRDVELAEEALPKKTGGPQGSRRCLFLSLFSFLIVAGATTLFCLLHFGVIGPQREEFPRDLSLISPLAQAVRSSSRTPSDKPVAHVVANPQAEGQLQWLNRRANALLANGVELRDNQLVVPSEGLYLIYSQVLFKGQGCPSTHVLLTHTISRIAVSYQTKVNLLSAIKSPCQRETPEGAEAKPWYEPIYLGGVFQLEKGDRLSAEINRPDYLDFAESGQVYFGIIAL
# HEK293 [3] = assay: cells; settings: Homo sapiens
# [4] = target: T2, Nucleotide-binding oligomerization domain-containing protein 1 (Homo sapiens, UniProt Q9Y239); assay: NOD1 signaling inhibitors, SAR follow-up, revised (AID 2333); assay type: functional
# T2 sequence (Q9Y239 whole entry): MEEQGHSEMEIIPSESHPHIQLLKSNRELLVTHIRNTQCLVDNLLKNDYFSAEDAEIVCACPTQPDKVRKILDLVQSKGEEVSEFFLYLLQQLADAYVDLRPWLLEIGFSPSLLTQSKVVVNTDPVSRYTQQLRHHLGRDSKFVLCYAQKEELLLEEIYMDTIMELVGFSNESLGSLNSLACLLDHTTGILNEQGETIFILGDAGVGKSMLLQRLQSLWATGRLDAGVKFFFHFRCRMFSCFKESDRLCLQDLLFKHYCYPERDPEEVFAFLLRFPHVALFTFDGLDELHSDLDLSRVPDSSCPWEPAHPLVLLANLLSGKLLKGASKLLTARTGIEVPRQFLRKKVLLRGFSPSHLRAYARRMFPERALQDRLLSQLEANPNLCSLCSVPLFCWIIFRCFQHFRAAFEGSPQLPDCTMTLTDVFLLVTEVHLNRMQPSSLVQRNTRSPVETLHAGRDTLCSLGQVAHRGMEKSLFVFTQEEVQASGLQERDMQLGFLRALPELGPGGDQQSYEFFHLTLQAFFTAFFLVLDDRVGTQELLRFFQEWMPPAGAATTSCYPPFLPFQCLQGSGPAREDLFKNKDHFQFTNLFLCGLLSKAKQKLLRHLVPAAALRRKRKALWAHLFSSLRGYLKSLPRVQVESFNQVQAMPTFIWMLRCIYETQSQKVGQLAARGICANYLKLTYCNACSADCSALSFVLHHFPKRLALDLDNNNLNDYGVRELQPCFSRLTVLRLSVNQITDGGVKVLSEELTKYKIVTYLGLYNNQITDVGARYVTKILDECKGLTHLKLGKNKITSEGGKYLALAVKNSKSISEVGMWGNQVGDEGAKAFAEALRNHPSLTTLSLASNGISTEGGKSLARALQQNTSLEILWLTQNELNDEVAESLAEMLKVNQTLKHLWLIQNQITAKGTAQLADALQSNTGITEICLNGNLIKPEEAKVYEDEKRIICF
# [5] = cytotoxicity in HEK-293T cells, dose response, cytotoxicity control for TCR NF-kB inhibitor project, luminescence, T-cell screen hits (AID 489026); assay type: functional, cell-based;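 further: cells exposed to compound about 14 hours before the viability readout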
# [6] = target: Disintegrin and metalloproteinase domain-containing protein 17 (Homo sapiens, UniProt P78536); assay: ADAM17 protease inhibitors, dose response, counter-screen for ADAM10 exosite inhibitor project, biochemical, quenched FRET substrate (AID 743253)
# Disintegrin and metalloproteinase domain-containing protein 17, sequence (P78536 whole entry, the tested form may be a part): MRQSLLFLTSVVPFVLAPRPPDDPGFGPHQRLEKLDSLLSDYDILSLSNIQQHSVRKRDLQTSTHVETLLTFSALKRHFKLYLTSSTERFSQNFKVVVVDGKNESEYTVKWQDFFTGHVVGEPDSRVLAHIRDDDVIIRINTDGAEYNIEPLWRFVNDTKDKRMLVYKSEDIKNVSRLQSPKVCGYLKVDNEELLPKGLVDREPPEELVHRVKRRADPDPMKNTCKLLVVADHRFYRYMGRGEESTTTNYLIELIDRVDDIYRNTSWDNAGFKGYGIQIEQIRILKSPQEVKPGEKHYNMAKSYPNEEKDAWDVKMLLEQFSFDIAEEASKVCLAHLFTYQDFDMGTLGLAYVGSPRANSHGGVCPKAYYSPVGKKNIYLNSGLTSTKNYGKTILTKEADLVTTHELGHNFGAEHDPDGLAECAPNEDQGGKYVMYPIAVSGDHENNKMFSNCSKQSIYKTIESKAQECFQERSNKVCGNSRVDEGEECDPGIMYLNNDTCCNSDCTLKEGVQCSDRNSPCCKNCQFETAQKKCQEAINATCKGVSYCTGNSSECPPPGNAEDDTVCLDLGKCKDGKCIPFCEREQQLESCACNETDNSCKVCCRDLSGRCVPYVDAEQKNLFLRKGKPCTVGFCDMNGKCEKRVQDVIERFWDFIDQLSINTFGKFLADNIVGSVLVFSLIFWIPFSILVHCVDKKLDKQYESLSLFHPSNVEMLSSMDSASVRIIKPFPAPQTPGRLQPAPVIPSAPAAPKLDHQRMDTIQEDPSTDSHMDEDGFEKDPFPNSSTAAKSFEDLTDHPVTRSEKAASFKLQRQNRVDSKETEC
# CAAX prenyl protease 1 = CAAX prenyl protease 1 (Saccharomyces cerevisiae S288c, UniProt P47154); assay: Ste24 protease inhibitors, dose response, biochemical, S. cerevisiae, plate reader, cherry-pick (AID 488815)
# CAAX prenyl protease 1, sequence (P47154 whole entry): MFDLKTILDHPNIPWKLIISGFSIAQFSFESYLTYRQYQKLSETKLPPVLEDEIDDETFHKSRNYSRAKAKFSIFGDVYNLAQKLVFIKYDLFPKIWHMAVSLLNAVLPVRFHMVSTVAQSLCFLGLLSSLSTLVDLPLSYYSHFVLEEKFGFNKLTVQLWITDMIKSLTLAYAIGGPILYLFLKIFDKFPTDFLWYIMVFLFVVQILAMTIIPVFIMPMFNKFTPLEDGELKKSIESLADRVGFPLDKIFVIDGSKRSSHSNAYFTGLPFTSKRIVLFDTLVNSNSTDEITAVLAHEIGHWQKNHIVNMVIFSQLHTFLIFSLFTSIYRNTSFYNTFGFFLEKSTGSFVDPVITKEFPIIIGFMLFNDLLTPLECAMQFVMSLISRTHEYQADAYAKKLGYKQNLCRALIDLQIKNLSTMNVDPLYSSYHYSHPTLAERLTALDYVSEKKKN
# CAAX prenyl protease 2 = CAAX prenyl protease 2 (Homo sapiens, UniProt Q9Y256); assay: human Rce1 protease inhibitors, dose response, biochemical, yeast membranes, quenched-peptide fluorescence, cherry-pick (AID 588849)
# CAAX prenyl protease 2, sequence (Q9Y256 whole entry): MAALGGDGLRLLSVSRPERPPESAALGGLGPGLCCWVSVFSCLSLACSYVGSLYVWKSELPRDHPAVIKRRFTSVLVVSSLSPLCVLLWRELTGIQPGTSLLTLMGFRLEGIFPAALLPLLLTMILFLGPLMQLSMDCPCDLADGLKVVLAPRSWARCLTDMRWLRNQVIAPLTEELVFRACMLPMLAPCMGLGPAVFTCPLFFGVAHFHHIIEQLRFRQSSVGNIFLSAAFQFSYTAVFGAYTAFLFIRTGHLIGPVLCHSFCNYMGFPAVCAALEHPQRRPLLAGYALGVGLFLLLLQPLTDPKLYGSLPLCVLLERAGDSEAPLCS
# [7] = inhibitors of intracellular T. cruzi replication, confirmation, NIH3T3 host cells, beta-gal luminescence (AID 2044); assay type: functional, cell-based;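 further: intracellular parasites grown in NIH/3T3 mouse fibroblasts as host cells; luminescent beta-galactosidase reporter signal from transgenic T. cruzi replicating inside host cells; inhibitors lower the luminescence signal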
# [8] = cytotoxicity toward NIH3T3 fibroblasts, dose response, counter-screen, cell-based, ATP luminescence, mouse fibroblasts (AID 2010); assay type: functional;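 further: cells exposed to compound for about 90 hours before reading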
# [9] = ADAM10 inhibitors, peptide cleavage, dose response, biochemical, QFRET (AID 743254);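 further: ADAM10 enzyme with the DM2 quenched FRET peptide as substrate; EDANS fluorescence gain as the protease cuts the substrate; inhibitor potency against ADAM10 proteolytic activity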
# [10] = inhibitors of firefly luciferase expression or activity, dose response, H4 neuroglioma cells, luminescence (AID 1990); assay type: functional, cell-based
# [11] = target: Tyrosine-protein phosphatase non-receptor type 12 (Homo sapiens, UniProt Q05209); assay: SAR Selectivity Analysis of small molecule inhibitors of PEST using pCAP in a fluorescence assay. [Related pubchem assays (depositor defined):AID1779, AID1784, AID2135]; assay type: functional
# Tyrosine-protein phosphatase non-receptor type 12, sequence (Q05209 whole entry): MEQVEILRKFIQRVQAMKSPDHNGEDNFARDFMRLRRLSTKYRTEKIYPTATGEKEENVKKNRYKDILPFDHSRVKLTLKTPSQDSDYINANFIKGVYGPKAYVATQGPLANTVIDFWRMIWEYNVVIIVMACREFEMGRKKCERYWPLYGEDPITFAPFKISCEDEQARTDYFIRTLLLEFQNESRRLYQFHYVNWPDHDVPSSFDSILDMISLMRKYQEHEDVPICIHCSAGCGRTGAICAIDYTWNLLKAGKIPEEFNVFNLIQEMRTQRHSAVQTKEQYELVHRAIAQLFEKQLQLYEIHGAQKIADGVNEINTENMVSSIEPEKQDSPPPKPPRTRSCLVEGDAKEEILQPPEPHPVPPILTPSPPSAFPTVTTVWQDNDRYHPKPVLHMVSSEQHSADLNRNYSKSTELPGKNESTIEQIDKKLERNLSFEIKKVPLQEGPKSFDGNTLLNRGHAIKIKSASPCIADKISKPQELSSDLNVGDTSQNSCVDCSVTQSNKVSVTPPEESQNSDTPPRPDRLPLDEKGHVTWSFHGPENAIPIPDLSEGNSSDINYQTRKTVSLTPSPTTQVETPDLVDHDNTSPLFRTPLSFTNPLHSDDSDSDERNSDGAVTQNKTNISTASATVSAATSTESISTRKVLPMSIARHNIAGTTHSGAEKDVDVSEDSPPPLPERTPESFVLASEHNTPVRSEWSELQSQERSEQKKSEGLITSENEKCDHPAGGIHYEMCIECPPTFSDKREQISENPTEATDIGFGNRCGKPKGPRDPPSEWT
# [12] = target: T3, Tyrosine-protein phosphatase non-receptor type 7 (Homo sapiens, UniProt P35236); assay: HePTP (PTPN7) phosphatase inhibitor potency, SAR follow-up, biochemical, set 2 (AID 449736); assay type: functional
# T3 sequence (P35236 whole entry): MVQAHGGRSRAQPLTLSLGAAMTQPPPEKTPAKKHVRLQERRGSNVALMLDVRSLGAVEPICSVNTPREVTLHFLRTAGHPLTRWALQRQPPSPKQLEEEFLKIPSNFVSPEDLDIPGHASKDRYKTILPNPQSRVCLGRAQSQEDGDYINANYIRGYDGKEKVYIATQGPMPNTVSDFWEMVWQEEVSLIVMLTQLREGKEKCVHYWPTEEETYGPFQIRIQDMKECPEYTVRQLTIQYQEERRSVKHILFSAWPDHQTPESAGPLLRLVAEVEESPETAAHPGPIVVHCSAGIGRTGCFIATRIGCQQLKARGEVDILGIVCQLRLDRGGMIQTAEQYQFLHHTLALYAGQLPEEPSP
# [13] = target: T4, G-protein coupled receptor 35 (Homo sapiens, UniProt Q9HC97); assay: SAR Analysis for the identification of Selective Antagonists of ERK1/2 Activity in GPR35-Overexpressing U2OS Cells. [Related pubchem assays: 2079, 2058 ]; assay type: functional, cell-based
# T4 sequence (Q9HC97 whole entry): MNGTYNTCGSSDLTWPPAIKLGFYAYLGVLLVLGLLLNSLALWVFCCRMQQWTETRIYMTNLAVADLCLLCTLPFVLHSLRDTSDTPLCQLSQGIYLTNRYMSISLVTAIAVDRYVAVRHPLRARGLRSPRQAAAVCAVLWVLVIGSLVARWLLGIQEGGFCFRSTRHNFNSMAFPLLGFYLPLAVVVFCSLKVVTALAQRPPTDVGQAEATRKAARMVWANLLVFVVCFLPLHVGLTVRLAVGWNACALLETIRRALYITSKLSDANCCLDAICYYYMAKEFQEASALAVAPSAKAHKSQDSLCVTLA
# Streptokinase A = target: T5, Streptokinase A (Streptococcus pyogenes serotype M1, UniProt P10520); assay: S. pyogenes streptokinase expression inhibitors, potency, dose response, plasminogen activation absorbance, OD405 (AID 1914); assay type: functional, Streptococcus pyogenes M1 GAS;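 further: secreted streptokinase activity via plasminogen activation per viability signal from cell pellet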
# T5 sequence (P10520 whole entry): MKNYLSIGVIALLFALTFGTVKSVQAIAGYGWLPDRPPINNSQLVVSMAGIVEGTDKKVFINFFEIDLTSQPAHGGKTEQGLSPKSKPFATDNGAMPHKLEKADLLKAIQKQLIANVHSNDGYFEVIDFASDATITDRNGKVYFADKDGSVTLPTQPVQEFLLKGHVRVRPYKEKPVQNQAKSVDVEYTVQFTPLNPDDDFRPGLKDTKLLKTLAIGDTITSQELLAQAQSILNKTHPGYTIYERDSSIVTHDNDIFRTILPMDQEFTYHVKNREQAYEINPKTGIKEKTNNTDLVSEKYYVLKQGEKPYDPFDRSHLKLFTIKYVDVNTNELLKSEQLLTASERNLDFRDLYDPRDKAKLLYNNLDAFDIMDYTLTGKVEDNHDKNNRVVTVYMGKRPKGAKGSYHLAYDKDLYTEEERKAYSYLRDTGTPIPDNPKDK
# Streptococcus = assay: Group A Streptococcus viability loss, dose response, counter-screen for streptokinase expression inhibitor project, luminescence, BacTiterGlo (AID 1915); assay type: functional, organism-based;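 further: potency for reduction of bacterial viability or growth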
# [14] = target: G-protein coupled receptor 55 (Homo sapiens, UniProt Q9Y2T6); assay: GPR55 antagonists, SAR follow-up, counter-screen for GPR35 antagonist project, imaging, image-based (AID 2397); assay type: functional
# [15] = Luminescence Cell-Based Dose Response HTS to Identify Inhibitors of 5'UTR Stem-Loop Driven Prion Protein mRNA Translation in H4 Neuroglioblastoma Cells. [Related pubchem assays: 1827 (Project Summary), 1813 (Primary HTS)]; assay type: functional
# [16] = tested on: Streptococcus sp. 'group A'; assay: growth inhibition of control SK(-) GAS strain, dose response, counter-screen for streptokinase expression inhibitor project, luminescence, kanamycin, BacTiterGlo, confirmation (AID 1900); assay type: functional, organism-based
# [17] = target: T4, G-protein coupled receptor 35; assay: GPR35 antagonists blocking zaprinast-driven arrestin recruitment, primary screen, imaging, U2OS, beta-arrestin-GFP, zaprinast agonist (AID 2058); assay type: functional;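 further: antagonist potency meaning inhibition of agonist-induced arrestin redistribution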
# [18] = inhibitors of SNCA 5'UTR-driven reporter translation, confirmation, H4 neuroglioma cells, luminescence (AID 1988); assay type: functional, cell-based
# [19] = target: T6, Tyrosine-protein phosphatase non-receptor type 22 (Homo sapiens, UniProt Q9Y2R2); assay: SAR LYP1 Fluorescent Assay using OMFP substrate for In Vitro dose response studies - Set 3. [Related pubchem assays (depositor defined):AID1779, AID1784, AID2140, AID2686]; assay type: functional
# T6 sequence (Q9Y2R2 whole entry): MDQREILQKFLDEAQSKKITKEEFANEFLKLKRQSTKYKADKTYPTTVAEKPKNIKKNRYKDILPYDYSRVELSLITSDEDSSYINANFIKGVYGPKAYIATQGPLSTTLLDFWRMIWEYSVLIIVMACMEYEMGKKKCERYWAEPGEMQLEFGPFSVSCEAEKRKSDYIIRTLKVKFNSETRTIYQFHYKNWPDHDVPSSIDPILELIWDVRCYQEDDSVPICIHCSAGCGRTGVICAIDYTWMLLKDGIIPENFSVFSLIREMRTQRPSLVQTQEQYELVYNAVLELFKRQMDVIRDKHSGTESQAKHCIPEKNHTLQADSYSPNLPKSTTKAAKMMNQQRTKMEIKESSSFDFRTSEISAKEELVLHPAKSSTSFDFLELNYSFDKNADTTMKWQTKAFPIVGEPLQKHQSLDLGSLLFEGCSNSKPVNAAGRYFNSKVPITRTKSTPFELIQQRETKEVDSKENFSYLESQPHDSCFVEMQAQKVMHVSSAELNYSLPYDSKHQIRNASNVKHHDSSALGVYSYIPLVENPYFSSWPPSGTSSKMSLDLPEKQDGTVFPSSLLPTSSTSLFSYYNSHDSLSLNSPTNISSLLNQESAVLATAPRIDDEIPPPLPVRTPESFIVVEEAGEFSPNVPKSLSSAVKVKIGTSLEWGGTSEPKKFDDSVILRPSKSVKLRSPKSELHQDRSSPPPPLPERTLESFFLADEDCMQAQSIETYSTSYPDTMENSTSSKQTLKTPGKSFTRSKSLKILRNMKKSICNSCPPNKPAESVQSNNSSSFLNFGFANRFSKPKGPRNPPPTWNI
# Cytochrome P450 2D6 = Cytochrome P450 2D6 (Homo sapiens, UniProt P10635);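 further: CYP2D6 member of a cytochrome P450 panel assay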
# Cytochrome P450 2D6, sequence (P10635 whole entry): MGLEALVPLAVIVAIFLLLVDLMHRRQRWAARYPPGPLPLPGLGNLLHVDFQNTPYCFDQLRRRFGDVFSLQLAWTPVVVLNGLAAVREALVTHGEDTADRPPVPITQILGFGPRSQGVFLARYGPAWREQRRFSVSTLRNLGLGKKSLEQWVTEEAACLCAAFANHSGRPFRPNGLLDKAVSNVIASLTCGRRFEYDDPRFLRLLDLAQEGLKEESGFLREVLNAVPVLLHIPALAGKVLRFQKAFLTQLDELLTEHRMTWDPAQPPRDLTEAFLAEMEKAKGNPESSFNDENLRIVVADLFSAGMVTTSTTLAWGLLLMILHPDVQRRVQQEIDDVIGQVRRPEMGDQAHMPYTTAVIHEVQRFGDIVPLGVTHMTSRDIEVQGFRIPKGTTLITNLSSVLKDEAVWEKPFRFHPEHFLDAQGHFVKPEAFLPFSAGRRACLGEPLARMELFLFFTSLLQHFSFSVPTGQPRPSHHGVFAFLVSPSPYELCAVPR
# Cytochrome P450 2C19 = Cytochrome P450 2C19 (Homo sapiens, UniProt P33261); assay: Cytochrome panel assay with activity outcomes. Panel member name: p450-cyp2c19 Compounds with AC50 equal or less than 10 uM are considered active; assay type: functional
# Tumor necrosis factor [20] = target: T1, Tumor necrosis factor; assay: TNFa-triggered NF-kB activation inhibitors, SAR follow-up, cell-based, set 3 (AID 2801); assay type: functional
# [21] = target: T2, Nucleotide-binding oligomerization domain-containing protein 1; assay: SAR analysis of compounds that inhibit NOD1 - Set 3. [Related pubchem assays (depositor defined):AID1566, AID1575, AID1578, AID1849, AID1852, AID2333, AID2335, AID2466]; assay type: functional
# [22] = target: Nucleotide-binding oligomerization domain-containing protein 2 (Homo sapiens, UniProt Q9HC29); assay: NOD2 signaling inhibitors, analog potency, SAR follow-up, cell-based, set 3 (AID 2799); assay type: functional
# Nucleotide-binding oligomerization domain-containing protein 2, sequence (Q9HC29 whole entry, the tested form may be a part): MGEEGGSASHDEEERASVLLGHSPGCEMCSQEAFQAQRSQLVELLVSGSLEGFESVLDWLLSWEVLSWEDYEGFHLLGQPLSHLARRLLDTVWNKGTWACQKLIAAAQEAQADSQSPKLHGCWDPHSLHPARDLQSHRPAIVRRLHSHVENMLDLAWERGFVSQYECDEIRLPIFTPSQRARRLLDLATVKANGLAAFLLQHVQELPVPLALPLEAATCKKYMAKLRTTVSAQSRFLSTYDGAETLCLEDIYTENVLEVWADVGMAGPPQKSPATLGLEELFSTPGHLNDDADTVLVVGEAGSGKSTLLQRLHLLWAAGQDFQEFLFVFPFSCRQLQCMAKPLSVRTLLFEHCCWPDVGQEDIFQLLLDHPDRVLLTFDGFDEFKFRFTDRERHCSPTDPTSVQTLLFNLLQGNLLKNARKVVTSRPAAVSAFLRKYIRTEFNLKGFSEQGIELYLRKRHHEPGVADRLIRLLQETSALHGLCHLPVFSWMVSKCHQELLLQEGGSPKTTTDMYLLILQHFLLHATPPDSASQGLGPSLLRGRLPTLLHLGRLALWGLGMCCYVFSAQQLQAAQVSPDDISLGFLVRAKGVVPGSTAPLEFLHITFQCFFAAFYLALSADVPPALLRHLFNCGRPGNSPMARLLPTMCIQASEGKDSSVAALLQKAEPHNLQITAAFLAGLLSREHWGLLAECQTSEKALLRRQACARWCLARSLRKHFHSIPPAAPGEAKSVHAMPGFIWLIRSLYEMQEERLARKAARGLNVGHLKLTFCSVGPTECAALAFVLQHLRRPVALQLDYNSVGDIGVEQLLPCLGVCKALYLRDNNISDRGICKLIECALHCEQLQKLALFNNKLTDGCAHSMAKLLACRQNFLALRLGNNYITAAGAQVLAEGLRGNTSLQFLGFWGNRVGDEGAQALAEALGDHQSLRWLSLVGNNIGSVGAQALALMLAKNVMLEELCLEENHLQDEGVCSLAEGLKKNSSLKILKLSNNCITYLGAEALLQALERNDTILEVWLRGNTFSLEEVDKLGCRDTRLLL
# HEK293 [23] = assay: SAR analysis of compounds that are cytotoxic to HEK293 - Set 3. [Related pubchem assays (depositor defined):AID1575, AID1578, AID1848, AID1849, AID2001, AID2333, AID2334, AID2335, AID2337, AID2469]; assay type: functional, cell-based; settings: Homo sapiens
# [24] = target: Lysine-specific demethylase 4A (Homo sapiens, UniProt O75164); assay: JMJD2A histone demethylase inhibitors, dose response, selectivity assay for GASC-1 inhibitor project, biochemical, DELFIA europium, cherry-picked samples (AID 488840)
# [25] = Luminescence Cell-Based Dose Retest to Confirm Inhibitors of Cancer Stem Cells. [Related pubchem assays (depositor defined):AID2717, AID2721]; assay type: functional; settings: Homo sapiens
# [26] = cytotoxicity in HMLE control line with eGFP shRNA, dose response, counter-screen for HMLE_sh_ECad selective toxicity project, cell-based, HMLE_sh_eGFP, luminescence (AID 463074); assay type: functional, Homo sapiens;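 further: HMLE human mammary epithelial cells expressing control shRNA against eGFP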
# Sphingosine 1-phosphate receptor 2, sequence (O95136 whole entry): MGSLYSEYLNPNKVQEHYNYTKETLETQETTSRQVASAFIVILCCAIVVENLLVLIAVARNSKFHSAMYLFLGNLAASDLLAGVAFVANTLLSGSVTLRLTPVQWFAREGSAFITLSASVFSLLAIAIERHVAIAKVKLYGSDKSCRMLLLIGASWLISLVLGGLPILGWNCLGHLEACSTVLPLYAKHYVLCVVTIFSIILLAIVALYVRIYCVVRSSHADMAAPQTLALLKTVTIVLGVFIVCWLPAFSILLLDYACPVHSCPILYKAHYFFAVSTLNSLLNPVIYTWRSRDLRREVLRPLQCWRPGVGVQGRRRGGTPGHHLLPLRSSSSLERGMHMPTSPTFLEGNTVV
smiles,measurement,setting,value
O=C(Nc1ccc(S(=O)(=O)N2CCOCC2)cc1)c1ccc(CN2CCc3ccccc3C2)cc1,IC50,[1],3.77 µM (active)
same,AC50,Cytochrome P450 3A4,inconclusive
same,IC50,Tumor necrosis factor [2],0.627 µM (active)
same,IC50,HEK293 [3],5.46 µM (active)
same,IC50,[4],0.347 µM (active)
same,IC50,[5],> 80 µM (inactive)
NC(=O)[C@@H]1CC2(CC(c3cccc(NC(=O)CC(c4ccccc4)c4ccccc4)c3)=NO2)CN1C(=O)c1ccc(Cl)cc1 (stereo partly drawn),IC50,[6],> 69.5 µM (inactive)
same,AC50,CAAX prenyl protease 1,5.27 µM (active)
same,AC50,CAAX prenyl protease 2,41.7 µM (active)
same,EC50,[7],0.619 µM (active)
same,EC50,[8],> 60 µM (not active)
same,IC50,[9],> 7.72 µM (active)
CCc1ccc(/C=C2\SC(=S)N(CCCC(=O)Nc3ccc(C(=O)O)cc3)C2=O)cc1,EC50,[10],0.248 µM (active)
same,IC50,[11],9.28 µM (active)
same,IC50,[12],0.581 µM (active)
same,IC50,[13],0.636 µM (active)
same,EC50,Streptokinase A,> 150 µM (not active)
same,EC50,Streptococcus,> 150 µM (not active)
same,IC50,[14],17.3 µM (inactive)
same,EC50,[15],7.61 µM (active)
same,EC50,[16],7.29 µM (active)
same,IC50,[17],< 0.5 µM (active)
same,EC50,[18],3.67 µM (active)
same,IC50,[19],76.8 µM (active)
CC[C@@]1([N+](=O)[O-])C[C@H]2C=C[C@@H]1C2.CC[C@@]1([N+](=O)[O-])C[C@H]2C=C[C@@H]1C2,AC50,Cytochrome P450 2D6,inconclusive
same,AC50,Cytochrome P450 2C19,inconclusive
Nc1nc2ccccc2n1S(=O)(=O)c1ccc(Cl)c(Cl)c1,IC50,Tumor necrosis factor [20],> 20 µM (inactive)
same,IC50,[21],0.529 µM (active)
same,IC50,[22],> 20 µM (inactive)
same,IC50,HEK293 [23],> 20 µM (inactive)
Cc1ccc(S(=O)(=O)Nc2ccc3c(c2)CC(=O)N([C@H](C)CO)C[C@@H](C)[C@H](CN(C)S(=O)(=O)c2ccccc2)O3)cc1,AC50,[24],> 60 µM (inactive)
COc1cc(F)cc(-c2ccc3c(c2)c(-c2cccs2)c(-c2cc(OC)cc(OC)c2)n3C)c1,AC50,[25],16.5 µM (active)
same,AC50,[26],26.5 µM (active)
